Source: patent US10844077B2, “Thiazolyl-containing compounds for treating proliferative diseases” (Dana-Farber Cancer Institute, Inc., priority 2014, dated 2020)
Like-named read-outs stand apart in the source and are kept apart here.

How the values were obtained:
Assay type in all cases: binding
broad panel of kinases [1] = molecular target: broad panel of kinases (Homo sapiens, UniProt Q14289); settings: PYK2; 1 μM
broad panel of kinases [2] = molecular target: broad panel of kinases (Homo sapiens, UniProt P21709); settings: EPHA1; 1 μM
broad panel of kinases [3] = molecular target: broad panel of kinases (Homo sapiens, UniProt O75716); settings: STK16; 1 μM
broad panel of kinases [4] = molecular target: broad panel of kinases (Homo sapiens, UniProt Q12852); settings: DLK; 1 μM
broad panel of kinases [5] = molecular target: broad panel of kinases (Homo sapiens, UniProt P35590); settings: TIE1; 1 μM
broad panel of kinases [6] = molecular target: broad panel of kinases (Homo sapiens, UniProt Q04771); settings: ACVR1; 1 μM
broad panel of kinases [7] = molecular target: broad panel of kinases (Homo sapiens, UniProt Q09013); settings: DMPK; 1 μM
broad panel of kinases [8] = molecular target: broad panel of kinases (Homo sapiens, UniProt Q8IVH8); settings: MAP4K3; 1 μM
broad panel of kinases [9] = molecular target: broad panel of kinases (Homo sapiens, UniProt Q9BQI3); settings: EIF2AK1; 1 μM
broad panel of kinases [10] = molecular target: broad panel of kinases (Homo sapiens, UniProt Q16832); settings: DDR2; 1 μM
Sequence of broad panel of kinases (Homo sapiens, UniProt Q16832) (Q16832 22-855 limits assumed): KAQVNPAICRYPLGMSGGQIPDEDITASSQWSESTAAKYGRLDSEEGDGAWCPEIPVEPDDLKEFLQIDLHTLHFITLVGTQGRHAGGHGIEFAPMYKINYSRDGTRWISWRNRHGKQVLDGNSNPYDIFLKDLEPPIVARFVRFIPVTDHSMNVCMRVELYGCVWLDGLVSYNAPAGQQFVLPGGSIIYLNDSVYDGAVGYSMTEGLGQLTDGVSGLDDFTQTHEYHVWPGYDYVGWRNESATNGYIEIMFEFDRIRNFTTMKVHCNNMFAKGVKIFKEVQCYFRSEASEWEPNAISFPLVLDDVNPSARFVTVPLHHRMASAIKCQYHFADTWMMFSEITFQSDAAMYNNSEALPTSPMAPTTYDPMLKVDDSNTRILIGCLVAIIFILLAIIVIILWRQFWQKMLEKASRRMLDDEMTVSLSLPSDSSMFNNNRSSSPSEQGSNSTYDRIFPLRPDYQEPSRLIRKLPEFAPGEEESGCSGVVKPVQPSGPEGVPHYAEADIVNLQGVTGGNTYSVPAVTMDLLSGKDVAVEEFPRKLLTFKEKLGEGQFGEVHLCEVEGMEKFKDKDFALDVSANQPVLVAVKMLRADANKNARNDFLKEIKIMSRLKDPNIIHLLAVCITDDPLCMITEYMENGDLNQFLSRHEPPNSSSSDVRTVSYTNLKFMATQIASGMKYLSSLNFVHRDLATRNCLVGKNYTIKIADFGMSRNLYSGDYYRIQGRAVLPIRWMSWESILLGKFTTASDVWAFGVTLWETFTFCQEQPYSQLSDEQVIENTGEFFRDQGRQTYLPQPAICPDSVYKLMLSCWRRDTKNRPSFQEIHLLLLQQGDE

broad panel of kinases [11] = molecular target: broad panel of kinases (Homo sapiens, UniProt Q08881); settings: ITK; 1 μM
broad panel of kinases [12] = molecular target: broad panel of kinases (Homo sapiens, UniProt Q9UKE5); settings: TNIK; 1 μM
broad panel of kinases [13] = molecular target: broad panel of kinases (Homo sapiens, UniProt Q02779); settings: MLK2; 1 μM
broad panel of kinases [14] = molecular target: broad panel of kinases (Homo sapiens, UniProt Q02156); settings: PRKCE; 1 μM
broad panel of kinases [15] = molecular target: broad panel of kinases (Homo sapiens, UniProt Q52WX2); settings: SBK1; 1 μM
broad panel of kinases [16] = molecular target: broad panel of kinases (Homo sapiens, UniProt Q9Y6M4); settings: CSNK1G3; 1 μM
broad panel of kinases [17] = molecular target: broad panel of kinases (Homo sapiens, UniProt Q14012); settings: CAMK1; 1 μM
broad panel of kinases [18] = molecular target: broad panel of kinases (Homo sapiens, UniProt Q15349); settings: 1 μM
broad panel of kinases [19] = molecular target: broad panel of kinases (Homo sapiens, UniProt Q13237); settings: PRKG2; 1 μM
broad panel of kinases [20] = molecular target: broad panel of kinases (Homo sapiens, UniProt O14730); settings: RIOK3; 1 μM
broad panel of kinases [21] = molecular target: broad panel of kinases (Homo sapiens, UniProt P27448); settings: MARK3; 1 μM
broad panel of kinases [22] = molecular target: broad panel of kinases (Homo sapiens, UniProt P10721, V559D/V654A); settings: KIT(V559D, V654A); 1 μM
broad panel of kinases [23] = molecular target: broad panel of kinases (Homo sapiens, UniProt Q05397); settings: FAK; 1 μM
broad panel of kinases [24] = molecular target: broad panel of kinases (Homo sapiens, UniProt Q04912); settings: MST1R; 1 μM
Sequence of broad panel of kinases (Homo sapiens, UniProt Q04912) (Q04912 25-304 limits assumed): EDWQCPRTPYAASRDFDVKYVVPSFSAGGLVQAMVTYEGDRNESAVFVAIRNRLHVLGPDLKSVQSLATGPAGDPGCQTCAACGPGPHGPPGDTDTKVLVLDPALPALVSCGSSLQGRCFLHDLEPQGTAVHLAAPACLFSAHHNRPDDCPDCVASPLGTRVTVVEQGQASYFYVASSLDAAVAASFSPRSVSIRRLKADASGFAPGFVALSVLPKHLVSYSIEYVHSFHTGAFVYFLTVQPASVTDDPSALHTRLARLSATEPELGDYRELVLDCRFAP
Sequence of broad panel of kinases (Homo sapiens, UniProt Q04912) (Q04912 310-1400 limits assumed): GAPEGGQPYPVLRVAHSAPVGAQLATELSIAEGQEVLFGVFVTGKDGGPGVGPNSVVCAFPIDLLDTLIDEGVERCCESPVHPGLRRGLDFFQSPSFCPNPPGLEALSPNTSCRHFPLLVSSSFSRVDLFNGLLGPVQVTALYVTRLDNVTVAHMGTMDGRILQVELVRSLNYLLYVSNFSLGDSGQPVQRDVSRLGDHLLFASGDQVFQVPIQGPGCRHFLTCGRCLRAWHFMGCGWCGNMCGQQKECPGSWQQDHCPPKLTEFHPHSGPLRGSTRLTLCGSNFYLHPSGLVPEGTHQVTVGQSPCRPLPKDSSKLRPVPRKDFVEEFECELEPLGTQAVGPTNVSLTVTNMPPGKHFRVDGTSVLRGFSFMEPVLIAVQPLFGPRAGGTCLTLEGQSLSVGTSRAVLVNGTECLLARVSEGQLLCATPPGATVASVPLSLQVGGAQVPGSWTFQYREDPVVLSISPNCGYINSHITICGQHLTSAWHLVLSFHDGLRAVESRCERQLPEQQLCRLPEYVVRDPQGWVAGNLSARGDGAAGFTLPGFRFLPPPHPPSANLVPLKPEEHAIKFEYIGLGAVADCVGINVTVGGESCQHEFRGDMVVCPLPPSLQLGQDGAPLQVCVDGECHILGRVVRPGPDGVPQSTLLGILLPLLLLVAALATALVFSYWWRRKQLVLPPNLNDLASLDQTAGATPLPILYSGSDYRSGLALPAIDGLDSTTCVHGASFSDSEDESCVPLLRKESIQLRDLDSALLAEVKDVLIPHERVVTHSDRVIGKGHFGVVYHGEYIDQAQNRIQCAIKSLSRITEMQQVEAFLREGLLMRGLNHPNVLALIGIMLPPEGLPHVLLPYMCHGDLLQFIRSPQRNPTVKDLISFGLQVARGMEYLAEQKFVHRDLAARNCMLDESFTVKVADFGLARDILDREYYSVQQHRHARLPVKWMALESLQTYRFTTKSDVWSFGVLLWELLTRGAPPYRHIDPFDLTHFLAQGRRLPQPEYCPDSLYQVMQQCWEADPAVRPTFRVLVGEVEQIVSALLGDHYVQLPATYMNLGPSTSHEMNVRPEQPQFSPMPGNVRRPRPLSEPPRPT

broad panel of kinases [25] = molecular target: broad panel of kinases (Homo sapiens, UniProt P22607, G697C); settings: FGFR3(G697C); 1 μM
Sequence of broad panel of kinases (Homo sapiens, UniProt P22607, G697C) (P22607 23-806 G697C limits assumed): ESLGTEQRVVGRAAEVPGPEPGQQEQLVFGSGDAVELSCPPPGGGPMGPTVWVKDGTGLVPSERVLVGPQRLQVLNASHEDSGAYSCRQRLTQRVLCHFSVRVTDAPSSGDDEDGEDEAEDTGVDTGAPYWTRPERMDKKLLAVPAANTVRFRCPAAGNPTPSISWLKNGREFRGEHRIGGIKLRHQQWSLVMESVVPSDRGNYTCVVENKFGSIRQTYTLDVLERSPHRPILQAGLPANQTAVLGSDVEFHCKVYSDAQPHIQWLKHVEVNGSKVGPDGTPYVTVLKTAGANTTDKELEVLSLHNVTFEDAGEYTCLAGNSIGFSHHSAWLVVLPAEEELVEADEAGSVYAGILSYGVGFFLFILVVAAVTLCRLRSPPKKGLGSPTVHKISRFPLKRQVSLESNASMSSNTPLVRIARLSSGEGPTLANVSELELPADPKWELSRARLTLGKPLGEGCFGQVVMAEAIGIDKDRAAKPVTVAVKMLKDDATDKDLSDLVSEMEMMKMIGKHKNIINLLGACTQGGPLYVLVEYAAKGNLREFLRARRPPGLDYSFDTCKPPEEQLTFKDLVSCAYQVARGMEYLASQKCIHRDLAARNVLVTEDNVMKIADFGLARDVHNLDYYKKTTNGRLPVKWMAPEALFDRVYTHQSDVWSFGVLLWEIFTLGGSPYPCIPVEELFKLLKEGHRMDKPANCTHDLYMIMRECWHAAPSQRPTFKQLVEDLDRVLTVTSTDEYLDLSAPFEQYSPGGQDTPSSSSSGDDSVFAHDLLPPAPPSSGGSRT

broad panel of kinases [26] = molecular target: broad panel of kinases (Homo sapiens, UniProt P42679); settings: CTK; 1 μM
broad panel of kinases [27] = molecular target: broad panel of kinases (Homo sapiens, UniProt P42336, H1047L); settings: PIK3CA(H1047L); 1 μM
broad panel of kinases [28] = molecular target: broad panel of kinases (Homo sapiens, UniProt P42336, H1047Y); settings: PIK3CA(H1047Y); 1 μM
broad panel of kinases [29] = molecular target: broad panel of kinases (Homo sapiens, UniProt P53355); settings: DAPK1; 1 μM
broad panel of kinases [30] = molecular target: broad panel of kinases (Homo sapiens, UniProt Q9BZL6); settings: PRKD2; 1 μM
broad panel of kinases [31] = molecular target: broad panel of kinases (Homo sapiens, UniProt Q06418); settings: TYRO3; 1 μM
Sequence of broad panel of kinases (Homo sapiens, UniProt Q06418) (Q06418 41-890 limits assumed): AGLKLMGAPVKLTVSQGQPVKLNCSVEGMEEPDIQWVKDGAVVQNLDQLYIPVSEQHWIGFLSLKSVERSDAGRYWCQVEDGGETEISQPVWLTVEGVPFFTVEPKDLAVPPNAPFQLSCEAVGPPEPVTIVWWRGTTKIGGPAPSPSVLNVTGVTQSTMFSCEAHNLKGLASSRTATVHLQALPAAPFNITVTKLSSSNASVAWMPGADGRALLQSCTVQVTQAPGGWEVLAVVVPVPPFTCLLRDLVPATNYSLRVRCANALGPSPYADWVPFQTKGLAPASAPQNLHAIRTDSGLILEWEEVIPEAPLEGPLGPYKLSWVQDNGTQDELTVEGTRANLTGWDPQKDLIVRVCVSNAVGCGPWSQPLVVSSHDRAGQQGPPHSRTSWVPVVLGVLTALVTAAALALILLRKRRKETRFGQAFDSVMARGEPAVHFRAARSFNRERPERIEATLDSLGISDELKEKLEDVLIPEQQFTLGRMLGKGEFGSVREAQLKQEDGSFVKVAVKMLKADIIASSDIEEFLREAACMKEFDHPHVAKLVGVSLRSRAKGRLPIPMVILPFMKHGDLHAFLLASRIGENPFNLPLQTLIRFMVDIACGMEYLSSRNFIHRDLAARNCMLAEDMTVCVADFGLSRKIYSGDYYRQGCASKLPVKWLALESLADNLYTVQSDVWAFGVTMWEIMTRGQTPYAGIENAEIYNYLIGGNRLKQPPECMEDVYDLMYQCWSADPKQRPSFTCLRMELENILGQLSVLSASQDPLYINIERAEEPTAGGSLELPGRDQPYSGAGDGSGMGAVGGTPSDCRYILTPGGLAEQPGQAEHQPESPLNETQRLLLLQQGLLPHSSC

broad panel of kinases [32] = molecular target: broad panel of kinases (Homo sapiens, UniProt O00238); settings: BMPR1B; 1 μM
broad panel of kinases [33] = molecular target: broad panel of kinases (Homo sapiens, UniProt O43283); settings: LZK; 1 μM
broad panel of kinases [34] = molecular target: broad panel of kinases (Homo sapiens, UniProt P31152); settings: ERK4; 1 μM
broad panel of kinases [35] = molecular target: broad panel of kinases (Homo sapiens, UniProt P29322); settings: EPHA8; 1 μM
Sequence of broad panel of kinases (Homo sapiens, UniProt P29322) (P29322 28-1005 limits assumed): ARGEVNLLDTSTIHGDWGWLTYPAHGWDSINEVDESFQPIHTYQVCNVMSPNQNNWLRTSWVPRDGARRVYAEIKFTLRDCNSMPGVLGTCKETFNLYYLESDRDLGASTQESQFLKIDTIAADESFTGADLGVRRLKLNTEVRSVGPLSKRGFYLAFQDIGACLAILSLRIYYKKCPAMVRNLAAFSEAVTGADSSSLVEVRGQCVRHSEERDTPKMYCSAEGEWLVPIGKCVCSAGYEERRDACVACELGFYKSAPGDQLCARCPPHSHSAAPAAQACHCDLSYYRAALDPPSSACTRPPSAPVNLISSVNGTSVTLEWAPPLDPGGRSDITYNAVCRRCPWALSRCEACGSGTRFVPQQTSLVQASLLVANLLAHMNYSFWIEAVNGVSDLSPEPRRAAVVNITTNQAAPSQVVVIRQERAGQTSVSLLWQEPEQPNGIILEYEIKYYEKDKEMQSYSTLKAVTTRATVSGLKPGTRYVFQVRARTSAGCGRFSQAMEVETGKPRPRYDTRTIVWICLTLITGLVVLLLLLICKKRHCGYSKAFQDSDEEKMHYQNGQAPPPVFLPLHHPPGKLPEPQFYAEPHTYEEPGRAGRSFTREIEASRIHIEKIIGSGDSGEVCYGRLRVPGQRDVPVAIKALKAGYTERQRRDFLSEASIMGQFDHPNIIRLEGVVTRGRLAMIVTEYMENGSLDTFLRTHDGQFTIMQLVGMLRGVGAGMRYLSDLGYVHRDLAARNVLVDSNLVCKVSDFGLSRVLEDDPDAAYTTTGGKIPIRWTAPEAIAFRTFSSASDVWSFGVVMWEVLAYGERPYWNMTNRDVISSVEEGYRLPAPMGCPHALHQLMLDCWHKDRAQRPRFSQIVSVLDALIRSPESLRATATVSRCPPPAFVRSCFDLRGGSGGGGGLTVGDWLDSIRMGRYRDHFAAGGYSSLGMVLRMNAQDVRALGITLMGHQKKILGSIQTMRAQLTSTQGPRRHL

broad panel of kinases [36] = molecular target: broad panel of kinases (Homo sapiens, UniProt Q99759); settings: MAP3K3; 1 μM
broad panel of kinases [37] = molecular target: broad panel of kinases (Homo sapiens, UniProt Q9UBE8); settings: NLK; 1 μM

SMILES: C=CC(=O)N1CC[C@H](Nc2nc(CN3CCOCC3)cc(Nc3ncc(C(=O)Nc4c(C)cccc4C)s3)n2)C1 [Example I-2]
- percent of control binding remaining (lower = stronger binding) (broad panel of kinases [1]): 100%
- percent of control binding remaining (lower = stronger binding) (broad panel of kinases [2]): 0.5%
- percent of control binding remaining (lower = stronger binding) (broad panel of kinases [3]): 99%
- percent of control binding remaining (lower = stronger binding) (broad panel of kinases [4]): 98%
- percent of control binding remaining (lower = stronger binding) (broad panel of kinases [5]): 100%
- percent of control binding remaining (lower = stronger binding) (broad panel of kinases [6]): 74%
- percent of control binding remaining (lower = stronger binding) (broad panel of kinases [7]): 98%
- percent of control binding remaining (lower = stronger binding) (broad panel of kinases [8]): 100%
- percent of control binding remaining (lower = stronger binding) (broad panel of kinases [9]): 100%
- percent of control binding remaining (lower = stronger binding) (broad panel of kinases [10]): 8.6%
- percent of control binding remaining (lower = stronger binding) (broad panel of kinases [11]): 100%
- percent of control binding remaining (lower = stronger binding) (broad panel of kinases [12]): 97%
- percent of control binding remaining (lower = stronger binding) (broad panel of kinases [13]): 100%
- percent of control binding remaining (lower = stronger binding) (broad panel of kinases [14]): 100%
- percent of control binding remaining (lower = stronger binding) (broad panel of kinases [15]): 54%
- percent of control binding remaining (lower = stronger binding) (broad panel of kinases [16]): 96%
- percent of control binding remaining (lower = stronger binding) (broad panel of kinases [17]): 91%
- percent of control binding remaining (lower = stronger binding) (broad panel of kinases [18]; RSK3(Kin.Dom.1-N-terminal)): 93%
- percent of control binding remaining (lower = stronger binding) (broad panel of kinases [18]; RSK3(Kin.Dom.2-C-terminal)): 100%
- percent of control binding remaining (lower = stronger binding) (broad panel of kinases [19]): 99%
- percent of control binding remaining (lower = stronger binding) (broad panel of kinases [20]): 98%
- percent of control binding remaining (lower = stronger binding) (broad panel of kinases [21]): 94%
- percent of control binding remaining (lower = stronger binding) (broad panel of kinases [22]): 7.2%
- percent of control binding remaining (lower = stronger binding) (broad panel of kinases [23]): 100%
- percent of control binding remaining (lower = stronger binding) (broad panel of kinases [24]): 99%
- percent of control binding remaining (lower = stronger binding) (broad panel of kinases [25]): 100%
- percent of control binding remaining (lower = stronger binding) (broad panel of kinases [26]): 67%
- percent of control binding remaining (lower = stronger binding) (broad panel of kinases [27]): 84%
- percent of control binding remaining (lower = stronger binding) (broad panel of kinases [28]): 100%
- percent of control binding remaining (lower = stronger binding) (broad panel of kinases [29]): 100%
- percent of control binding remaining (lower = stronger binding) (broad panel of kinases [30]): 100%
- percent of control binding remaining (lower = stronger binding) (broad panel of kinases [31]): 41%
- percent of control binding remaining (lower = stronger binding) (broad panel of kinases [32]): 10%
- percent of control binding remaining (lower = stronger binding) (broad panel of kinases [33]): 97%
- percent of control binding remaining (lower = stronger binding) (broad panel of kinases [34]): 90%
- percent of control binding remaining (lower = stronger binding) (broad panel of kinases [35]): 0.75%
- percent of control binding remaining (lower = stronger binding) (broad panel of kinases [36]): 79%
- percent of control binding remaining (lower = stronger binding) (broad panel of kinases [37]): 11%

SMILES: C=CC(=O)N1CC[C@H](Nc2nccc(Nc3ncc(C(=O)Nc4c(C)cccc4C)s3)n2)C1 [Example I-3]
- percent of control binding remaining (lower = stronger binding) (broad panel of kinases [1]): 100%
- percent of control binding remaining (lower = stronger binding) (broad panel of kinases [2]): 1.6%
- percent of control binding remaining (lower = stronger binding) (broad panel of kinases [3]): 89%
- percent of control binding remaining (lower = stronger binding) (broad panel of kinases [4]): 100%
- percent of control binding remaining (lower = stronger binding) (broad panel of kinases [5]): 100%
- percent of control binding remaining (lower = stronger binding) (broad panel of kinases [6]): 100%
- percent of control binding remaining (lower = stronger binding) (broad panel of kinases [7]): 98%
- percent of control binding remaining (lower = stronger binding) (broad panel of kinases [8]): 100%
- percent of control binding remaining (lower = stronger binding) (broad panel of kinases [9]): 97%
- percent of control binding remaining (lower = stronger binding) (broad panel of kinases [10]): 8.4%
- percent of control binding remaining (lower = stronger binding) (broad panel of kinases [11]): 98%
- percent of control binding remaining (lower = stronger binding) (broad panel of kinases [12]): 93%
- percent of control binding remaining (lower = stronger binding) (broad panel of kinases [13]): 95%
- percent of control binding remaining (lower = stronger binding) (broad panel of kinases [14]): 100%
- percent of control binding remaining (lower = stronger binding) (broad panel of kinases [15]): 58%
- percent of control binding remaining (lower = stronger binding) (broad panel of kinases [16]): 95%
- percent of control binding remaining (lower = stronger binding) (broad panel of kinases [17]): 63%
- percent of control binding remaining (lower = stronger binding) (broad panel of kinases [18]; RSK3(Kin.Dom.1-N-terminal)): 89%
- percent of control binding remaining (lower = stronger binding) (broad panel of kinases [18]; RSK3(Kin.Dom.2-C-terminal)): 97%
- percent of control binding remaining (lower = stronger binding) (broad panel of kinases [19]): 91%
- percent of control binding remaining (lower = stronger binding) (broad panel of kinases [20]): 90%
- percent of control binding remaining (lower = stronger binding) (broad panel of kinases [21]): 57%
- percent of control binding remaining (lower = stronger binding) (broad panel of kinases [22]): 25%
- percent of control binding remaining (lower = stronger binding) (broad panel of kinases [23]): 100%
- percent of control binding remaining (lower = stronger binding) (broad panel of kinases [24]): 100%
- % change compared to control (broad panel of kinases [25]): 99%
- percent of control binding remaining (lower = stronger binding) (broad panel of kinases [26]): 81%
- percent of control binding remaining (lower = stronger binding) (broad panel of kinases [27]): 100%
- percent of control binding remaining (lower = stronger binding) (broad panel of kinases [28]): 96%
- percent of control binding remaining (lower = stronger binding) (broad panel of kinases [29]): 100%
- percent of control binding remaining (lower = stronger binding) (broad panel of kinases [30]): 100%
- percent of control binding remaining (lower = stronger binding) (broad panel of kinases [31]): 41%
- percent of control binding remaining (lower = stronger binding) (broad panel of kinases [32]): 45%
- percent of control binding remaining (lower = stronger binding) (broad panel of kinases [33]): 88%
- percent of control binding remaining (lower = stronger binding) (broad panel of kinases [34]): 62%
- percent of control binding remaining (lower = stronger binding) (broad panel of kinases [35]): 0.45%
- percent of control binding remaining (lower = stronger binding) (broad panel of kinases [36]): 94%
- percent of control binding remaining (lower = stronger binding) (broad panel of kinases [37]): 9.4%
